Source: publication PMC4849045, “Hepatoprotective Limonoids from Andiroba (Carapa guianensis)” (International Journal of Molecular Sciences, 2016)
Read-outs that look alike come from different tables or passages of the source.

Key:
[1] = test system: LPS-activated NO production in mouse peritoneal macrophages; conditions: cited from earlier work; for Inhibition (%) of LPS-activated NO production: mean ± S.E.M. (n = 4); for IC50: mouse peritoneal macrophages, read-out: IC50, inhibition of LPS-activated NO production
[2] = test system: mouse peritoneal macrophages; conditions: mean ± S.E.M. (n = 4), cited from earlier work
[3] = test system: D-GalN/LPS-induced liver injury in mice; test: D-GalN/LPS-induced liver injury in mice; type: in vivo, mouse; conditions: p.o.; for Mortality: dead/total; for sALT / sAST: mean ± S.E.M.
Experimental: Male ddY mice (Kiwa Laboratory Animal Co., Ltd., Wakayama, Japan) were housed at a constant temperature of 23 ± 2°C and were fed a standard laboratory chow (MF, Oriental Yeast Co., Ltd., Tokyo, Japan). The animals were fasted for 24 h prior to the beginning of the experiment but were allowed free access to tap water. All experiments were performed with conscious mice unless otherwise noted. The experimental protocol was approved by the Experimental Animal Research Committee of Kindai University (KAPR-26-001, 1 April 2014).
The method described by Tiegs et al. was modified and used for this study. Curcumin [36] and silybin were used as reference compounds.

L929 cells = test: TNF-α-induced cytotoxicity in L929 cells (MTT assay); type: cell-based; conditions: Mus musculus; for inhibition at 1 µM / inhibition at 3 µM / inhibition at 10 µM / inhibition at 30 µM: read-out: Inhibition (%) of TNF-α-induced cytotoxicity
Experimental: The effects of the limonoids (1–17) on the sensitivity of hepatocytes to TNF-α were assessed by measuring TNF-α-induced decreases in the viability of L929 cells, a TNF-α-sensitive cell line, by using the MTT assay. In the absence of a test sample, the cells incubated with 1 ng/mL TNF-α for 44 h were compared with those not incubated with TNF-α.
Assay for the TNF-α-induced cytotoxicity in L929 cells was performed as described previously. Silybin was used as a reference compound [36].

[4] = test system: primary cultured mouse hepatocytes; test: D-GalN-induced cytotoxicity in primary cultured mouse hepatocytes (MTT assay); conditions: Hepatocyte, read-out: Inhibition (%) of D-GalN-induced cytotoxicity
Experimental: Assay for the D-GalN-induced cytotoxicity in primary cultured mouse hepatocytes was performed as described previously [33, 35, 36].

[5] = 10 µM, # = cytotoxic effects were observed
[6] = 30 µM, # = cytotoxic effects were observed
[7] = 100 µM, # = cytotoxic effects were observed
[8] = L929, 1 µM, 1 ng/mL TNF-α, 44 h, mean ± S.E.M. (n = 4)
[9] = L929, 3 µM, 1 ng/mL TNF-α, 44 h, mean ± S.E.M. (n = 4)
[10] = L929, 10 µM, 1 ng/mL TNF-α, 44 h, mean ± S.E.M. (n = 4)
[11] = L929, 30 µM, 1 ng/mL TNF-α, 44 h, mean ± S.E.M. (n = 4)

| SMILES | Inhibition (%) of LPS-activated NO production ([1]; 3 µM) [%] | Inhibition (%) of LPS-activated NO production ([1]; 10 µM) [%] | Inhibition (%) of LPS-activated NO production ([1]; 30 µM) [%] | Inhibition (%) of LPS-activated NO production ([1]; 100 µM) [%] | IC50 [1] [µM] | cell viability (%) in MTT assay (values in parentheses) ([2]; 3 µM) [%] | cell viability (%) in MTT assay (values in parentheses) [2, 7] [%] | sALT Inhibition (%) ([3]; 25 mg/kg) | sAST Inhibition (%) ([3]; 25 mg/kg) | Mortality ([3]; 25 mg/kg) | sALT ([3]; 25 mg/kg) [Karmen Unit] | sAST ([3]; 25 mg/kg) [Karmen Unit] | sALT Inhibition (%) ([3]; 50 mg/kg) | sAST Inhibition (%) ([3]; 50 mg/kg) | cell viability (%) in MTT assay (values in parentheses) ([2]; 10 µM) [%] | cell viability (%) in MTT assay (values in parentheses) ([2]; 30 µM) [%] | inhibition at 3 µM [4] [%] | inhibition at 10 µM [4] [%] | inhibition at 30 µM [4] [%] | inhibition at 100 µM [4] [%] | other results |
| --- | --- | --- | --- | --- | --- | --- | --- | --- | --- | --- | --- | --- | --- | --- | --- | --- | --- | --- | --- | --- | --- |
| O=C(/C=C/c1ccc(O)c(O)c1)OCCc1ccccc1 [CAPE, caffeic acid phenethyl ester, reference compound] | 5.9 ± 5.2 | 44.4 ± 3.2 | 86.2 ± 1.1 | 99.6 ± 0.1 | 11 | 95.4 ± 0.7 | 53.0 ± 1.4 | – | – | – | – | – | – | – | – | – | – | – | – | – | cell viability (%) in MTT assay (values in parentheses) [2, 5]: 70.0 ± 4.0%; cell viability (%) in MTT assay (values in parentheses) [2, 6]: 71.4 ± 6.0% |
| [H]/N=C(/NC)NCCC[C@H](N)C(=O)O [L-NMMA, N^G-monomethyl-L-arginine, reference compound] | 1.4 ± 2.8 | 19.9 ± 2.8 | 43.0 ± 2.1 | 70.9 ± 1.6 | 36 | 101.1 ± 5.7 | 106.4 ± 4.6 | – | – | – | – | – | – | – | – | – | – | – | – | – | cell viability (%) in MTT assay (values in parentheses) [2, 5]: 100.7 ± 6.2%; cell viability (%) in MTT assay (values in parentheses) [2, 6]: 102.6 ± 4.2% |
| CC(=O)O[C@@H]1C[C@H]2C(C)(C)C(=O)C=C[C@]2(C)[C@H]2CC[C@@]3(C)[C@H](c4ccoc4)OC(=O)[C@H]4O[C@]43[C@@]21C [compound 1, gedunin] | 25.1 ± 2.5 | 84.5 ± 2.3 | 101.8 ± 0.6 | 100.9 ± 0.4 | 4.6 | 102.2 ± 5.3 | 3.0 ± 0.4 | 65.7 | 56.2 | 0/7 | 2950 ± 710 | 2304 ± 651 | 67.2 | 63.5 | 119.5 ± 5.3 | 94.8 ± 1.4 | -8.4 ± 1.9 | -3.9 ± 0.4 | -3.2 ± 0.9 | -5.2 ± 0.2 | Mortality ([3]; 50 mg/kg): 0/7; sALT ([3]; 50 mg/kg): 2824 ± 754 Karmen Unit; sAST ([3]; 50 mg/kg): 1923 ± 576 Karmen Unit; inhibition at 1 µM (L929 cells; [8]): 4.5 ± 1.9%; inhibition at 3 µM (L929 cells; [9]): 21.8 ± 3.7%; inhibition at 10 µM (L929 cells; [10]): 38.1 ± 3.8%; inhibition at 30 µM (L929 cells; [11]): 36.5 ± 4.1% |
| CC(=O)O[C@@H]1C2C(C)(C)C(=O)C=C[C@]2(C)C2CC[C@@]3(C)[C@H](c4ccoc4)OC(=O)[C@H]4O[C@]43[C@]2(C)[C@@H]1OC(C)=O (stereo partly drawn) [compound 2, 6α-acetoxygedunin] | 16.9 ± 1.7 | 67.6 ± 4.6 | 88.4 ± 3.5 | 99.6 ± 0.2 | 7.9 | 96.8 ± 1.2 | 53.6 ± 5.1 | 63.7 | 54.7 | 0/7 | 3120 ± 830 | 2384 ± 579 | 72.2 | 67.9 | 102.3 ± 2.2 | 92.5 ± 1.7 | -2.6 ± 1 | -1.9 ± 0.3 | -2.5 ± 0.7 | -1.8 ± 0.6 | Mortality ([3]; 50 mg/kg): 0/7; sALT ([3]; 50 mg/kg): 2397 ± 873 Karmen Unit; sAST ([3]; 50 mg/kg): 1696 ± 580 Karmen Unit; inhibition at 1 µM (L929 cells; [8]): 10.9 ± 1%; inhibition at 3 µM (L929 cells; [9]): 23.2 ± 1.8%; inhibition at 10 µM (L929 cells; [10]): 36.3 ± 2.1%; inhibition at 30 µM (L929 cells; [11]): 37.3 ± 1.4% |
| CC1(C)C(=O)C=C[C@@]2(C)C1CC(=O)[C@]1(C)C2CC[C@@]2(C)[C@H](c3ccoc3)OC(=O)[C@H]3O[C@]321 (stereo partly drawn) [compound 3, 7-deacetoxy-7-oxogedunin] | 7.4 ± 5.2 | 40.9 ± 4.7 | 94.0 ± 0.8 | 88.1 ± 2.1 | 12.8 | 100.3 ± 3.9 | 83.7 ± 1.2 | 66.3 | 60.3 | 0/7 | 2899 ± 1024 | 2093 ± 742 | 70.2 | 66.7 | 98.9 ± 3.2 | 98.8 ± 7.4 | -4.6 ± 0.5 | -8.2 ± 0.9 | -8.3 ± 1.1 | -8.9 ± 0.6 | Mortality ([3]; 50 mg/kg): 1/7; sALT ([3]; 50 mg/kg): 2572 ± 903 Karmen Unit; sAST ([3]; 50 mg/kg): 1759 ± 579 Karmen Unit; IC50 (L929 cells; L929, 44 h, read-out: IC50, inhibition of TNF-α-induced decrease in cell viability): 7.3 µM; inhibition at 1 µM (L929 cells; L929, 44 h): 5.8 ± 1.5%; inhibition at 3 µM (L929 cells; L929, 44 h): 26.7 ± 4.5%; inhibition at 10 µM (L929 cells; L929, 44 h): 58.6 ± 7.2%; inhibition at 30 µM (L929 cells; L929, 44 h): 68.7 ± 4.8% |
| CC1(C)C(=O)C=C[C@@]2(C)C1C[C@@H](O)[C@]1(C)C2CC[C@@]2(C)[C@H](c3ccoc3)OC(=O)[C@H]3O[C@]321 (stereo partly drawn) [compound 4, 7-deacetoxy-7α-hydroxygedunin] | 15.7 ± 4.6 | 55.7 ± 4.0 | 98.8 ± 0.4 | 100.2 ± 0.2 | 8.7 | 110.3 ± 5.9 | 2.6 ± 0.5 | – | – | – | – | – | – | – | 106.6 ± 3.1 | 96.3 ± 4.6 | -2 ± 1.4 | -6.3 ± 0.5 | -8 ± 0.4 | -4.1 ± 0.7 | inhibition at 3 µM (L929 cells; L929, 44 h): -6.5 ± 2.4%; inhibition at 10 µM (L929 cells; L929, 44 h): 2.7 ± 2.3%; inhibition at 30 µM (L929 cells; L929, 44 h): 36.5 ± 1.8% |
| CC(=O)O[C@@H]1[C@H](O)C2C(C)(C)C(=O)C=C[C@]2(C)C2CC[C@@]3(C)[C@H](c4ccoc4)OC(=O)[C@H]4O[C@]43[C@@]21C (stereo partly drawn) [compound 6, 6α-hydroxygedunin] | 7.7 ± 7.1 | 20.7 ± 4.3 | 64.0 ± 3.1 | 97.3 ± 0.3 | 19.1 | 88.4 ± 3.0 | 82.2 ± 4.2 | – | – | – | – | – | – | – | 87.6 ± 4.0 | 90.4 ± 2.6 | -7.2 ± 2.4 | -9.4 ± 0.8 | -0.1 ± 0.7 | -2.8 ± 0.5 | inhibition at 1 µM (L929 cells; [8]): 8.1 ± 1.9%; inhibition at 3 µM (L929 cells; [9]): 6.7 ± 1.5%; inhibition at 10 µM (L929 cells; [10]): 12.1 ± 3%; inhibition at 30 µM (L929 cells; [11]): 28.3 ± 1.7% |
| C=C1[C@@H]2CC[C@@]3(C)[C@H](c4ccoc4)OC(=O)C[C@]13O[C@H]1CC(=O)C(C)(C)[C@H](CC(=O)OC)[C@]12C [compound 7, methyl angolensate] | 10.1 ± 4.2 | 20.0 ± 8.1 | 42.2 ± 3.5 | 24.0 ± 4.2 | > 100 | 108.8 ± 11.0 | 78.1 ± 5.3 | – | – | – | – | – | – | – | 108.8 ± 5.5 | 111.0 ± 4.5 | -2.1 ± 1.2 | -7.5 ± 0.9 | -6.3 ± 0.7 | -6.6 ± 1 | inhibition at 1 µM (L929 cells; L929, 44 h): -0.5 ± 3.5%; inhibition at 3 µM (L929 cells; L929, 44 h): 0.6 ± 2.9%; inhibition at 10 µM (L929 cells; L929, 44 h): 13.3 ± 2.6%; inhibition at 30 µM (L929 cells; L929, 44 h): 24.6 ± 2.9% |
